Reference: patent publication US20210070748A1, “INHIBITORS OF BRUTONS TYROSINE KINASE” (Pharmacyclics LLC, priority 2015, published 2021)
Where two headings read alike, the source gives them in different places.

What was measured:
[1] = target: T1, BTK-WT (Homo sapiens, UniProt Q06187); assay: Btk in vitro inhibitory activity (one of Method A TR-FRET, Method B electrophoretic mobility shift, Method C radiometric filter binding); type: biochemical; settings: read-out: IC50 BTK-WT
T1 construct: purified from insect cells as a full-length construct containing an N-terminal 6X-His tag; His6 (N); made in house; host or cells: insect cells (baculovirus Sf21 in Method B)
Method: Btk kinase activity is determined using a time-resolved fluorescence resonance energy transfer (TR-FRET) methodology. Measurements are performed in a reaction volume of 50 μL using 96-well assay plates. […] The reaction is quenched by the addition of 1.2 equivalents of EDTA (relative to divalent cation) in 25 μL of 1× Lance buffer (Perkin-Elmer). […] The TR-FRET signal is measured on a multimode plate reader with an excitation wavelength (λEx) of 330 nm and detection wavelengths (λEm) of 615 and 665 nm. Activity is determined by the ratio of the fluorescence at 665 nm to that at 615 nm. For each compound, enzyme activity is measured at various concentrations of compound. Negative control reactions are performed in the absence of inhibitor in replicates of six, and two no-enzyme controls are used to determine baseline fluorescence levels. Inhibition constants, Ki(app), were obtained using the program BatchKi(Kuzmic et al. (2000), Anal. Biochem. 286:45-50). IC50s are obtained according to the equation:
IC50={Ki(app)/(1+[ATP]/Km^ATP)}+[E]total/2;
Kinase activity is measured in vitro using electrophoretic mobility shift assay. The kinase reactions are assembled in a total volume of 25 μL in 384 well plates. […] The reaction is incubated for one hour and is quenched by the addition of 45 μL of termination buffer (100 mM HEPES, pH7.5, 0.01% Triton X-100, 30 mM EDTA). The terminated reactions are analyzed using 12 channel LabChip® 3000 microfluidic detection instrument (Caliper Life Sciences). […] Change in the relative fluorescence intensity of the substrate and product peaks is the parameter measured, reflecting enzyme activity. In the presence of an inhibitor, the ratio between product and substrate is altered: the signal of the product decreases, while the signal of the substrate increases.
Activity in each sample is determined as the product to sum ratio (PSR): P/(S+P), where P is the peak height of the product peptide and S is the peak height of the substrate peptide. For each compound, enzyme activity is measured at various concentrations (12 concentrations of compound spaced by 3× dilution intervals). Negative control samples (0%-inhibition in the absence of inhibitor) and positive control samples (100%-inhibition, in the presence of 20 mM EDTA) are assembled in replicates of four and are used to calculate %-inhibition values for each inhibitor at each concentration. Percent inhibition (Pinh) is determined using following equation:
Pinh=(PSR0%-PSRinh)/(PSR0%−PSR100%)*100, where PSRinh is the product sum ratio in the presence of inhibitor, PSR0% is the average product sum ration in the absence of inhibitor and PSR100% is the average product sum ratio in 100%-inhibition control samples;
The IC50 values of inhibitors are determined by 4 parameter sigmoidal dose-response model fitting of the inhibition curves (Pinh versus inhibitor concentration) using XLfit 4 software.
Human Btk kinase (Genbank accession # NP_000052) was purified from insect cells as a full-length construct containing an N-terminal 6X-His tag. Btk kinase activity was determined using a radiometric filter binding assay. Measurements are performed in a low μL reaction volume 384-well assay plates. […] IC50 values and curve fits were obtained using Prism (GraphPad Software).

[2] = target: T2, ITK (Homo sapiens, UniProt Q08881); assay: Inhibition of a panel of kinases, in vitro HotSpot kinase assay: ITK; type: biochemical
T2 sequence (Q08881 1-620): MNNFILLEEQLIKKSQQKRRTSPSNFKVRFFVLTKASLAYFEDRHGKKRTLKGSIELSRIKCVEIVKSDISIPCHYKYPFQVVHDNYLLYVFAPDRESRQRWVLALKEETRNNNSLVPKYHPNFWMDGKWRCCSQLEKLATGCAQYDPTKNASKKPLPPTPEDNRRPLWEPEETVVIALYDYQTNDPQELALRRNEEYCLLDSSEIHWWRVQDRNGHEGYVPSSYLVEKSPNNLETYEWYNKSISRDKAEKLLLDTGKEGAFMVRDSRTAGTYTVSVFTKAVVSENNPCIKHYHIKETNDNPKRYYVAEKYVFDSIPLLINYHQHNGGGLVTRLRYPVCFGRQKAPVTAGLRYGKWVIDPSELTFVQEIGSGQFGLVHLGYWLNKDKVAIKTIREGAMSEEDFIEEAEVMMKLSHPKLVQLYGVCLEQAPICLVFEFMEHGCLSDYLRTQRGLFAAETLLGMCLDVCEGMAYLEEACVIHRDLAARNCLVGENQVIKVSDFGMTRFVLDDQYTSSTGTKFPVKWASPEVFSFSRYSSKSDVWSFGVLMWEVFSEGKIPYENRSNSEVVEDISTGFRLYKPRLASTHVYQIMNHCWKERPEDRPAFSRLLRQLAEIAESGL
Method: The degree of inhibition of a panel of kinases is determined using the in vitro HotSpot kinase assay (purified enzymes, ^33P-ATP, an appropriate substrate and 1 μM ATP).

[3] = Table 15, C compounds, 1 μM ATP

T1 sequence (Q06187 whole entry): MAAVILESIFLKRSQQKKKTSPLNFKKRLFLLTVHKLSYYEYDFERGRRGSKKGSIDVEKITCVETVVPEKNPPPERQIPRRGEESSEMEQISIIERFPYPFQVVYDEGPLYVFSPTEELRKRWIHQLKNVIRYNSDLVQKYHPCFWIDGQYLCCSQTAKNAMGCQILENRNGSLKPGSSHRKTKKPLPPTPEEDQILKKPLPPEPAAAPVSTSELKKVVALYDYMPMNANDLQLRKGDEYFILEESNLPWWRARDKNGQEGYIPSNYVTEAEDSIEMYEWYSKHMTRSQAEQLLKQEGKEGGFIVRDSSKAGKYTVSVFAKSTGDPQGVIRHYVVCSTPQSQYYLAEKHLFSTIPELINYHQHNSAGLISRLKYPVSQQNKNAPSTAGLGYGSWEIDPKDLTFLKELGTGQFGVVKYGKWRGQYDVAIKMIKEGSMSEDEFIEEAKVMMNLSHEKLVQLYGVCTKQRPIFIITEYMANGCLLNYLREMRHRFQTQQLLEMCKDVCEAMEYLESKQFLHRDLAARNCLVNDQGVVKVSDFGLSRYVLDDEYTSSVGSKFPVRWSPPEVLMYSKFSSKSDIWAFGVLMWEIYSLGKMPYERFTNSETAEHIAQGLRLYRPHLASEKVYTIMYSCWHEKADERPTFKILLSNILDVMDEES

| SMILES | IC50 ([1]; Table 15, C compounds) | IC50 [2, 3] | IC50 ([1]; E compounds, Table 17) | IC50 ([2]; E compounds, Table 17) |
| --- | --- | --- | --- | --- |
| C=CC(=O)N1CCC[C@@H](Nc2nnc(C(N)=O)c(Nc3cccc(-c4nccs4)c3)n2)C1 [Example C-86, (R)-3-(1-acryloylpiperidin-3-ylamino)-5-(3-(thiazol-2-yl)phenylamino)-1,2,4-triazine-6-carboxamide] | ≤ 10 nM | 10 to 100 nM |  |  |
| C=CC(=O)N1CCC[C@@H](Nc2nnc(C(N)=O)c(Nc3ccc4c(c3)CCC(=O)N4C)n2)C1 [Example C-87, (R)-3-(1-acryloylpiperidin-3-ylamino)-5-(1-methyl-2-oxo-1,2,3,4-tetrahydroquinolin-6-ylamino)-1,2,4-triazine-6-carboxamide] | ≤ 10 nM | ≤ 10 nM |  |  |
| C=CC(=O)N1CCC[C@@H](Nc2nnc(C(N)=O)c(Nc3ccc(C(C)C)cc3)n2)[C@@H]1C [Example E-17, 3-((2S,3R)-1-acryloyl-2-methylpiperidin-3-ylamino)-5-(4-isopropylphenylamino)-1,2,4-triazine-6-carboxamide] |  |  | ≤ 10 nM | 10 to 100 nM |
| C=CC(=O)N1CCC[C@H](Nc2nnc(C(N)=O)c(Nc3ccc(-c4ncco4)cc3)n2)C1 [Example E-18, (S)-3-(1-acryloylpiperidin-3-ylamino)-5-(4-(oxazol-2-yl)phenylamino)-1,2,4-triazine-6-carboxamide] |  |  | ≤ 10 nM | 10 to 100 nM |
| C=CC(=O)N1CCCC[C@H](Nc2nnc(C(N)=O)c(Nc3ccc(C(C)C)cc3)n2)C1 [Example E-19, (S)-3-(1-acryloylazepan-3-ylamino)-5-(4-isopropylphenylamino)-1,2,4-triazine-6-carboxamide] |  |  | ≤ 10 nM | 100 to 1000 nM |
| C=CC(=O)N1CCCC[C@@H](Nc2nnc(C(N)=O)c(Nc3ccc(C(C)C)cc3)n2)C1 [Example E-20, (R)-3-(1-acryloylazepan-3-ylamino)-5-(4-isopropylphenylamino)-1,2,4-triazine-6-carboxamide] |  |  | ≤ 10 nM | ≤ 10 nM |
| C=CC(=O)N[C@@H]1CCCN(c2nnc(C(N)=O)c(Nc3ccc(C(C)C)cc3)n2)C1 [Example E-21, (R)-3-(3-acrylamidopiperidin-1-yl)-5-(4-isopropylphenylamino)-1,2,4-triazine-6-carboxamide] |  |  | 10 to 100 nM | 100 to 1000 nM |
| C=CC(=O)N[C@H]1CCCN(c2nnc(C(N)=O)c(Nc3ccc(C(C)C)cc3)n2)C1 [Example E-22, (S)-3-(3-acrylamidopiperidin-1-yl)-5-(4-isopropylphenylamino)-1,2,4-triazine-6-carboxamide] |  |  | 10 to 100 nM | 100 to 1000 nM |
| C=CC(=O)N1CCC[C@H](Nc2nnc(C(N)=O)c(Nc3ccc(C(C)(C)C)cc3)n2)C1 [Example E-23, (S)-3-(1-acryloylpiperidin-3-ylamino)-5-(4-tert-butylphenylamino)-1,2,4-triazine-6-carboxamide] |  |  | ≤ 10 nM | 10 to 100 nM |
| C=CC(=O)N[C@H]1CCCC[C@H]1Nc1nnc(C(N)=O)c(Nc2ccc(C(C)C)cc2)n1 [Example E-25, 3-((1R,2S)-2-acrylamidocyclohexyl-amino)-5-(4-isopropylphenylamino)-1,2,4-triazine-6-carboxamide] |  |  | ≤ 10 nM | 100 to 1000 nM |
| C=CC(=O)N1CCC[C@H](N(C)c2nnc(C(N)=O)c(Nc3ccc(C(C)C)cc3)n2)C1 [Example E-27, (S)-3-((1-acryloylpiperidin-3-yl)(methyl)amino)-5-(4-isopropylphenylamino)-1,2,4-triazine-6-carboxamide] |  |  | ≤ 10 nM | 10 to 100 nM |
| C=CC(=O)N[C@@H]1CCCC[C@H]1Nc1nnc(C(N)=O)c(Nc2ccc(C(C)C)cc2)n1 [Example E-28, 3-((1R,2R)-2-acrylamidocyclo-hexylamino)-5-(4-isopropylphenylamino)-1,2,4-triazine-6-carboxamide] |  |  | ≤ 10 nM | 100 to 1000 nM |
| C=CC(=O)N[C@H]1CCCC[C@@H]1Nc1nnc(C(N)=O)c(Nc2ccc(C(C)C)cc2)n1 [Example E-29, 3-((1S,2S)-2-acrylamidocyclohexyl-amino)-5-(4-isopropylphenylamino)-1,2,4-triazine-6-carboxamide] |  |  | ≤ 10 nM | 100 to 1000 nM |
